# Residues, ends and D or L forms follow the SMILES beside them. *: point of attachment. Cbz = O=C(OCc1ccccc1)*; CH2F = FC*
# System: TNBC cells
# Test: MTT cell viability assay, statements for both TNBC lines
# Assay type: cell-based, Human
# Conditions: Z-VAD-FMK 20 μM with compound 7a 20 μM, 48 h
# Description: Compounds were dissolved in a hydrous dimethylsulfoxide (DMSO, Life technologies) to obtain a 50 mM stock solution, which was then added to the culture medium at a concentration range of 6.25-100 μM. […] Z-VAD-FMK was purchased from Selleckchem (Houston, Tex.); The reagents including 3-(4,5-dimethylthiazol-2-yl)-2,5-diphenyltetrazolium bromide (MTT), dimethyl sulfoxide (DMSO), penicillin, streptomycin, propidium iodide (PI) were purchased from Sigma-Aldrich (MO, USA); All the primary antibodies used in this study were from Cell Signaling Technology (MA, USA) and the secondary antibodies were from LI-COR Biosciences (NE, USA).
# Human triple negative breast cancer cell lines MDA-MB-231 and MDA-MB-468 were purchased from the American Type Culture Collection (ATCC, VA, USA). These cells were cultured in high-glucose DMEM (Gibco, USA) supplemented with 10% fetal bovine serum (FBS, Gibco) and 1% penicillin/streptomycin (Gibco) at 37° C. in a humidified incubator containing 5% CO2.
# The antiproliferative activity of compounds was measured with the MTT assay. […] The absorbance value was determined at 570 nm using a microplate reader (Bio-Tek, VT, USA). Data were analyzed by GraphPad Prism 6. […]
compound,measurement,value
"COC(=O)C[C@H](NC(=O)[C@H](C)NC(=O)[C@@H](NC(=O)OCc1ccccc1)C(C)C)C(=O)CF [Z-VAD-FMK, reference compound] (Cbz-Val-Ala-Asp(OMe)-CH2F)",rescue of compound 7a-induced apoptosis (cell viability),partially rescue cell apoptosis induced by compound 7a

# Source: US11512073B2, “Benzimidazole derivatives, pharmaceutical composition comprising the same, and use thereof” (Chongqing University of Arts and Sciences, priority 2020, dated 2022)
